Laboratory results from the supplement of paper PMC11061612.

Key:
Assay in all cases: Bliss excess, mean over the matrix (fraction); higher = more synergy
[1] = system: MFH-ino (Other Solid Carcinomas)
Summary of the method: (§1)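 After 24 hours at 37°C and 5% CO2 in 1536-well plates, cells in DMEM/F12 or RPMI plus 10% FBS received two-drug dose matrices for 72 hours. Viability came from CellTiter-Glo 2.0 luminescence and was scaled as inhibition, anchored at 0 by vehicle wells and at 1 by blank wells. Combination Emax is taken as the second-highest inhibition in the matrix, and Bliss excess as the observed combination effect less EA + EB − EA·EB, with EA and EB the single-agent effects.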

[2] = system: G-292-Clone-A141B1 (Osteosarcoma)
Summary of the method: as §1

[3] = system: CTV-1 (T-Lymphoblastic Leukemia)
Summary of the method: as §1

SK-N-FI (Neuroblastoma) = system: SK-N-FI (Neuroblastoma)
Summary of the method: as §1

[4] = system: NCI-H1793 (Lung Adenocarcinoma)
Summary of the method: as §1

NCI-H2369 (Mesothelioma) = system: NCI-H2369 (Mesothelioma)
Summary of the method: as §1

[5] = system: LU-99A (Non-Small Cell Lung Carcinoma)
Summary of the method: as §1

[6] = system: NCI-H1781 (Lung Adenocarcinoma)
Summary of the method: as §1

[7] = system: SW1990 (Pancreatic Carcinoma)
Summary of the method: as §1

[8] = system: MDA-MB-231 (Breast Carcinoma)
Summary of the method: as §1

[9] = system: DOV13 (Ovarian Carcinoma)
Summary of the method: as §1

[10] = system: TE-5 (Esophageal Squamous Cell Carcinoma)
Summary of the method: as §1

[11] = system: NALM-6 (B-Lymphoblastic Leukemia)
Summary of the method: as §1

[12] = system: EM-2 (Chronic Myelogenous Leukemia)
Summary of the method: as §1

[13] = system: TGBC24TKB (Biliary Tract Carcinoma)
Summary of the method: as §1

IGR-1 (Melanoma) = system: IGR-1 (Melanoma)
Summary of the method: as §1

[14] = system: JiyoyeP-2003 (Burkitt's Lymphoma)
Summary of the method: as §1

CAL-78 (Chondrosarcoma) = system: CAL-78 (Chondrosarcoma)
Summary of the method: as §1

[15] = system: SNU-C5 (Colorectal Carcinoma)
Summary of the method: as §1

[16] = system: HPAC (Pancreatic Carcinoma)
Summary of the method: as §1

Row | Structure (SMILES) | Bliss excess [1] | Bliss excess [2] | Bliss excess [3] | Bliss excess (SK-N-FI (Neuroblastoma)) | Bliss excess [4] | Bliss excess (NCI-H2369 (Mesothelioma)) | Bliss excess [5] | Bliss excess [6] | Bliss excess [7] | Bliss excess [8] | Bliss excess [9] | Bliss excess [10] | Bliss excess [11] | Bliss excess [12] | Bliss excess [13] | Bliss excess (IGR-1 (Melanoma)) | Bliss excess [14] | Bliss excess (CAL-78 (Chondrosarcoma)) | Bliss excess [15] | Bliss excess [16]
1 | COc1cccc(OCCCN)c1-c1cc(Nc2cnc(C#N)cn2)n[nH]1 [Prexasertib] + C[C@@H]1COCCN1C2=NC(=NC(=C2)C3(CC3)[S@](=N)(=O)C)C4=C5C=CNC5=NC=C4 [AZD6738] (first compound max 1 µM, 7x7, partner max 10 µM) | 0.0457 | 0.0477 | -0.0725 | 0.0336 | -0.0106 | -0.0274 | -0.0398 | 0.006 | -0.0446 | 0.0988 | 0.0179 | 0.0203 | -0.0522 | -0.0344 | -0.0038 | -0.0091 | -0.0065 | -0.0331 | -0.0143 | -0.0351
2 | NC1(C(=O)N[C@@H](CCO)c2ccc(Cl)cc2)CCN(c2ncnc3[nH]ccc23)CC1 [Capivasertib] + C[C@@H]1COCCN1C2=NC(=NC(=C2)C3(CC3)[S@](=N)(=O)C)C4=C5C=CNC5=NC=C4 [AZD6738] (first compound max 10 µM, 7x7, partner max 10 µM) | -0.086 | -0.0276 | 0.0489 | -0.0529 | 0.0097 | -0.0127 | -0.0059 | -0.032 | -0.0259 | -0.0598 | -0.062 | -0.0345 | -0.0686 | -0.0512 | -0.0104 | -0.0227 | -0.0698 | -0.0695 | -0.0645 | -0.0425
3 | CC1(C)CCC(CN2CCN(c3ccc(C(=O)NS(=O)(=O)c4ccc(NCC5CCOCC5)c([N+](=O)[O-])c4)c(Oc4cnc5[nH]ccc5c4)c3)CC2)=C(c2ccc(Cl)cc2)C1 [Venetoclax] + COc1cc(Nc2ncc3c(n2)-c2ccc(Cl)cc2C(c2c(F)cccc2OC)=NC3)ccc1C(=O)O [Alisertib] (first compound max 1 µM, 7x7, partner max 10 µM) | -0.0729 | -0.0793 | -0.0095 | 0.0916 | -0.0577 | -0.0739 | -0.0244 | -0.0303 | -0.074 | 0.0102 | 0.0303 | -0.105 | 0.104 | 0.24 | 0.0487 | 0.0759 | -0.0161 | -0.0353 | -0.0682 | -0.0517
4 | CN(CCO)CC[C@H](CSc1ccccc1)Nc1ccc(S(=O)(=O)NC(=O)c2ccc(N3CCC([C@@H](O)c4ccccc4-c4ccc(Cl)cc4)CC3)cc2)cc1S(=O)(=O)C(F)(F)F [AZD4320] + CCN(CCO)CCCOc1ccc2c(Nc3cc(CC(=O)Nc4cccc(F)c4)[nH]n3)ncnc2c1 [AZD2811] (first compound max 1 µM, 7x7, partner max 1 µM) | -0.0406 | 0.0019 | 0.0053 | -0.022 | -0.0421 | 0.0005 | 0.0564 | -0.0788 | -0.0214 | 0.0602 | 0.0816 | 0.0379 | 0.0868 | -0.0327 | 0.0337 | 0.148 | 0.057 | 0.117 | 0.0121 | 0.0486
5 | COc1nnc2ccc(N3CCC(c4ccc(OCCN5CCN(C)C(=O)[C@H]5C)cc4)CC3)nn12 [AZD5153] + Cc1c2c(nn1C)CSCc1cc(n(C)n1)CSc1cc(c3ccccc3c1)OCCCc1c(C(=O)O)n(C)c3c-2c(Cl)ccc13 [AZD5991] (first compound max 1 µM, 7x7, partner max 1 µM) | -0.0333 | -0.032 | -0.0515 | -0.0656 | -0.0484 | -0.0499 | 0.0087 | 0.0028 | -0.0477 | -0.057 | -0.108 | -0.0158 | -0.0732 | 0.0004 | 0.0447 | 0.0094 | -0.0218 | -0.0263 | -0.0417 | -0.0105
6 | CN(C)CCCOc1ccc(-c2ccc3ncc4c(c3c2)n(C2CCOCC2)c(=O)n4C)cn1 [AZD0156] + C=CCn1c(=O)c2cnc(Nc3ccc(N4CCN(C)CC4)cc3)nc2n1-c1cccc(C(C)(C)O)n1 [AZD1775] (first compound max 1 µM, partner max 1 µM) | -0.0954 | -0.0538 | -0.0169 | -0.0308 | -0.0489 | -0.0266 | -0.0422 | -0.0014 | -0.0358 | -0.0415 | -0.0523 | -0.0388 | 0.0093 | -0.0548 | -0.0224 | -0.031 | -0.0012 | -0.0854 | -0.0296 | -0.0284
7 | COc1cccc(OCCCN)c1-c1cc(Nc2cnc(C#N)cn2)n[nH]1 [Prexasertib] + C=CCn1c(=O)c2cnc(Nc3ccc(N4CCN(C)CC4)cc3)nc2n1-c1cccc(C(C)(C)O)n1 [AZD1775] (first compound max 1 µM, partner max 1 µM) | 0.039 | 0.028 | 0.0364 | 0.0466 | -0.0045 | -0.0074 | 0.0196 | 0.0258 | -0.0061 | 0.124 | 0.0963 | -0.0245 | 0.0507 | 0.0475 | 0.0429 | 0.0284 | 0.0839 | -0.0422 | 0.0153 | 0.0323
8 | CS(=O)(=O)CCNCc1ccc(-c2ccc3ncnc(Nc4ccc(OCc5cccc(F)c5)c(Cl)c4)c3c2)o1 [Lapatinib] + C[C@@H](Oc1cc(-c2cnn(C3CCNCC3)c2)cnc1N)c1c(Cl)ccc(F)c1Cl [Crizotinib] (first compound max 10 µM, 7x7, partner max 10 µM) | -0.0902 | -0.0506 | 0.036 | -0.0365 | -0.0351 | -0.0253 | -0.0205 | -0.0715 | -0.0042 | -0.042 | -0.0621 | -0.0054 | -0.0612 | -0.0062 | -0.0058 | -0.0282 | -0.0186 | -0.072 | -0.0301 | 0.0358
9 | Cc1c2c(nn1C)CSCc1cc(n(C)n1)CSc1cc(c3ccccc3c1)OCCCc1c(C(=O)O)n(C)c3c-2c(Cl)ccc13 [AZD5991] + C1CN(CCC1(C(=O)N[C@@H](CCO)C2=CC=C(C=C2)Cl)N)C3=NC=NC4=C3C=CN4 [Capivasertib] (first compound max 1 µM, 7x7, partner max 3 µM) | -0.0372 | -0.0115 | 0.0027 | 0.0211 | 0.0258 | -0.012 | -0.0247 | 0.0079 | -0.0314 | -0.0495 | 0.0055 | 0.0141 | 0.0149 | -0.0149 | 0.0066 | 0.0228 | 0.0371 | 0.0091 | 0.0007 | -0.0239
10 | CCN(CCO)CCCOc1ccc2c(Nc3cc(CC(=O)Nc4cccc(F)c4)[nH]n3)ncnc2c1 [AZD2811] + C=CCn1c(=O)c2cnc(Nc3ccc(N4CCN(C)CC4)cc3)nc2n1-c1cccc(C(C)(C)O)n1 [AZD1775] (first compound max 1 µM, partner max 1 µM) | -0.0399 | -0.0368 | 0.0014 | -0.0452 | -0.0064 | -0.0434 | -0.0354 | 0.0795 | -0.0403 | 0.009 | -0.0063 | -0.076 | -0.0515 | -0.0184 | -0.0717 | -0.0438 | 0.0548 | 0.0636 | 0.0188 | 0.0048
11 | CCN(CCO)CCCOc1ccc2c(Nc3cc(CC(=O)Nc4cccc(F)c4)[nH]n3)ncnc2c1 [AZD2811] + C[C@@H]1COCCN1C2=NC(=NC(=C2)C3(CC3)[S@](=N)(=O)C)C4=C5C=CNC5=NC=C4 [AZD6738] (first compound max 1 µM, 7x7, partner max 10 µM) | -0.0878 | -0.12 | 0.0009 | -0.0625 | -0.0341 | -0.0621 | -0.0732 | 0.0216 | -0.0555 | -0.103 | -0.0619 | -0.0582 | -0.0435 | -0.0433 | -0.0407 | 0.0315 | 0.0773 | -0.0799 | -0.0418 | -0.0244
12 | Cc1cc2ncnn2cc1Nc1ncc2c(n1)n(C1CCOCC1)c(=O)n2C [AZD7648] + O=C(c1cc(Cc2n[nH]c(=O)c3ccccc23)ccc1F)N1CCN(C(=O)C2CC2)CC1 [Olaparib] (first compound max 10 µM, 7x7, partner max 10 µM) | -0.0705 | -0.0855 | 0.0056 | -0.0292 | -0.0616 | -0.05 | -0.0556 | -0.0204 | -0.054 | -0.0752 | -0.0556 | -0.0431 | -0.027 | 0.0036 | -0.0128 | -0.0032 | 0.0339 | -0.0726 | -0.0064 | -0.0261
